The numbers were not newly measured in patent US20080102081A1, “Preparations and applications for treatment of high cholesterol levels” (priority 2006, published 2008), which cites them from elsewhere.

For series [1] the following is noted: clinical trials, patients at lower dosages.
The conditions of series [2]: denominator of prescription volume.

In the case of `CC(C)c1c(C(=O)Nc2ccccc2)c(-c2ccccc2)c(-c2ccc(F)cc2)n1CC[C@@H](O)C[C@@H](O)CC(=O)O` [Atorvastatin], in series [1], the “elevation of hepatic enzyme activity” value is given as 0.7%.
Take `COCc1c(C(C)C)nc(C(C)C)c(/C=C/[C@@H](O)C[C@@H](O)CC(=O)O)c1-c1ccc(F)cc1` [Cerivastatin]: in series [2], the fatal rhabdomyolysis rate is 3.16 fatal cases/million prescriptions.
